In series [1] the test system is rats with focal permanent cerebral ischemia (MCAO). The series can be described thus: Focal permanent cerebral ischemic injury (MCAO), administration from 3 h post-ischemia. The class given is in vivo, SD rats.
In series [2] the test system is mice injected with ellagic acid via the tail vein. The series can be described thus: Effect on in vivo clotting time in mice (ellagic acid tail vein injection). The following applies: Mus musculus, iv, 100 mg/kg i.g. for 4 days, ellagic acid i.v. 1 h after last dose, vs model group, read-out: Clotting time prolongation (%). As to the method:
The control and model groups were gavaged with distilled water, and the positive clopidogrel group, and the test substance group were gavaged orally (i.g.) with drug solution in a volume of 0.1 mL/10 g for 4 consecutive days. 1 h after the last administration, all groups were injected with 0.15 mL/10 g of 0.3% ellagic acid solution via tail vein injection except for the blank group which was injected with physiological saline: 0.1 ml/10 g. After 5 min, glass capillaries were used for blood collection through the retro-orbital venous plexus, and the appearance time of coagulation filaments was recorded by glass capillaries at 10-second intervals.
Calculation equation for prolongation of clotting time:
Prolongation of clotting time (%)=[(mean value of clotting time in blank or administered group/mean value of clotting time in model group)−1]×100%

Series [3] has as its system ICR mice. The experiment in a line: Effect on in vivo bleeding time in mice (tail cut). The following applies: 100 mg/kg i.g. once daily for 4 days. As to the method:
A normal control group (blank), positive control group (clopidogrel) and experimental groups were set up with 10 ICR mice (male, weighed about 25 g) in each group. Animals in each group were administered the corresponding drug solution by oral gavage (i.g.) at 0.1 ml/10 g body weight, and the blank control group was given distilled water, once daily for 4 days. On the 4th day, 1 h after the administration of the drug, the animals were anesthetized by intraperitoneal injection of sodium barbiturate at a dose of about 50 mg/kg, and 20 min later, the tails of the mice were cut at a distance of 3 mm from the tip of the tail, and at regular intervals, absorbent paper was used to dip the blood at the severed tails until no blood exuded, which was recorded as the bleeding time, and the results of the experiment were shown in Table 2.
Calculation equation for prolongation of bleeding time: […]

Series [4] has as its system acute inflammatory response caused by ellagic acid (serum cytokines). The experiment in a line: Antibody microarray detection of serum factors in ellagic acid model mice. On the set-up: TNFa / IL-6 / IL-1b / IL-5 / IL-13 / IL-1α / IL-1β / IL-2 / IL-3 / IL-4 / IFNg / CD40: unit not given here. The class given is in vivo, ICR mice. As to the method:
Experimental methods: ICR male mice, weighed about 25 g, were randomly divided into four groups: normal group, ellagic acid model group, 1-1 group, and 1-22 group, with four mice in each group. Mice in 1-1 group and 1-22 group were given 1-1, 100 mg/kg and 1-22, 100 mg/kg by gavage once a day respectively. 1 h after the third administration, except for the normal control group, the other three groups of mice were injected into the tail vein with 0.10 mL/10 g of 0.3% ellagic acid saline solution, and 1 h after injection, whole blood was collected from each animal, and centrifuged (3,000 rpm/min) for 10 min after 30 min of standing, and then centrifuged to obtain the serum. The serum from each group of animal was mixed in an EP tube, transported at −80° C., and sent for antibody microarray detection.

The mark [5] stands for this setting: Table 16, pooled serum, 100 mg/kg by gavage.
Where [6] appears, read: Table 17, pooled serum, 100 mg/kg by gavage.
[7] abbreviates: Table 18, pooled serum, 100 mg/kg by gavage.
The mark [8] stands for this setting: Table 19, pooled serum, 100 mg/kg by gavage.

Marks after values point to notes of the source that are not given here.

Consider `CCCCC1OC(=O)c2ccccc21` (stereo not drawn) [Butylphthalide, butylphthalide, reference compound], for which the “Number of survivors after 15 days animal” value in series [1] (60 mg/kg by gavage once a day, 15 enrolled) was determined as 7. Further, the “Mortality (%)” value in series [1] (15-day, 60 mg/kg by gavage) came out at 53.33%. In addition, the “Neurological function score on day 15” value in series [1] (Bederson's method, 60 mg/kg) was found to be 1.25. In series [1] (mean body weight, 60 mg/kg), the “Weight on day 1” value is recorded as 281.00 g, the “Weight on day 5” value is reported as 234.27 g and the “Weight on day 15” value came out at 276.75 g.

For `CC(C)OC(=O)CCNC(=O)CCNc1cc(=O)n(C)c(=O)n1C` [Compound 1-2], the change in vivo at 100 mg/kg in series [2] turned out to be 49.9%. The “Bleeding time prolongation (%)” value in series [3] came to 6.50%.

For `Cn1c(NCCC(=O)NCCC(=O)OC2CC3CCC2(C)C3(C)C)cc(=O)n(C)c1=O` (stereo not drawn) [Compound 1-4], the change in vivo at 100 mg/kg in series [2] stood at 39.7%. Further, the “Bleeding time prolongation (%)” value in series [3] stood at 16.40%.

With `Cn1c(NCCC(=O)NCCC(=O)OC2CC2)cc(=O)n(C)c1=O` [Compound 1-5], the change in vivo at 100 mg/kg in series [2] came to 41.9%. In addition, the “Bleeding time prolongation (%)” value in series [3] is −13.60%.

`Cn1c(NCCC(=O)NCCC(=O)OC2CCCCC2)cc(=O)n(C)c1=O` [Compound 1-6]: in series [2], the change in vivo at 100 mg/kg came to 42.4%. For the same compound, the “Bleeding time prolongation (%)” value in series [3] is given as 4.80%.

For `Cn1c(NCCC(=O)NCCC(=O)Oc2ccccc2)cc(=O)n(C)c1=O` [Compound 1-7], the change in vivo at 100 mg/kg in series [2] is 41.7%. Also, the “Bleeding time prolongation (%)” value in series [3] turned out to be 15.10%.

Regarding `Cc1cccc(C)c1OC(=O)CCNC(=O)CCNc1cc(=O)n(C)c(=S)n1C` [Compound 1-11], in series [2], the change in vivo at 100 mg/kg came to 39.3%. Moreover, in series [3], the “Bleeding time prolongation (%)” value is 20.60%.

As to `CC(C)OC(=O)CCNC(=O)CCNc1cc(=O)n(C)c(=O)n1Cc1cc(F)ccc1C#N` [Compound 1-13], the change in vivo at 100 mg/kg in series [2] is 39.8%. For the same compound, in series [3], the “Bleeding time prolongation (%)” value was determined as 15.60%.

As to `Cn1c(=O)cc(NCCC(=O)NCCC(=O)Oc2ccccc2)n(Cc2cc(F)ccc2C#N)c1=O` [Compound 1-15], the change in vivo at 100 mg/kg in series [2] was 42%. Also, the “Bleeding time prolongation (%)” value in series [3] is −4.70%.

As for `CC1CCC(C(C)C)C(OC(=O)CCNC(=O)CCNc2cc(=O)n(C)c(=O)n2Cc2cc(F)ccc2C#N)C1` (stereo not drawn) [Compound 1-16], the change in vivo at 100 mg/kg in series [2] is 38%. Besides, the “Bleeding time prolongation (%)” value in series [3] is 11.00%.

With `CCOC(=O)CCNC(=O)CCNc1cc(=O)n(C)c(=O)n1Cc1ccccc1C#N` [Compound 1-17], the change in vivo at 100 mg/kg in series [2] was determined as 44.1%. In series [3], the “Bleeding time prolongation (%)” value was −6.20%.

`CCOC(=O)CCNC(=O)CCNc1cc(=O)n(C)c(=O)n1Cc1cc(F)ccc1C#N` [Compound 1-18]: in series [2], the change in vivo at 100 mg/kg is 42.9%. The “Bleeding time prolongation (%)” value in series [3] worked out at 13.30%.

As to `Cc1cccc(C)c1OC(=O)CCNC(=O)CCNc1cc(=O)n(C)c(=O)n1Cc1cc(F)ccc1C#N` [Compound 1-19], in series [2], the change in vivo at 100 mg/kg is 60.4%. The “Bleeding time prolongation (%)” value in series [3] is listed as −38.00%.

For `CCOC(=O)CCNC(=O)[C@H](Nc1cc(=O)n(C)c(=O)n1C)C(C)CC` (stereo partly drawn) [Compound 1-22], in series [4] (setting [5]), the IL-6 was 10,273.27*, the RANTES/ccl5 is 1,909.28* and the TNFa is on record as 290.22*. For the same compound, in series [4] (Table 16, pooled serum, 100 mg/kg by gavage once a day x3, 1 h after ellagic acid), the IL-1b is listed as 268.76*. For the same compound, in series [4] (setting [6]), the IL-1α is 837.49*, the IL-1β was 268.76*, the IL-2 is reported as 464.49 and the IL-3 is 872.26*. In series [4] (setting [6]), the IL-4 is 961.11*, the IL-5 is listed as 227.55*, the IL-6 is recorded as 10,273.27* and the IL-13 was 620.73*. In series [4] (setting [7]), the Eotaxin/CCL11 is recorded as 3,096.53*, the MCP1/CCL2 was 2,231.63*, the MIP-3a/CCL20 is recorded as 1,252.13* and the RANTES/CCL5 was 1,909.28*. Also, in series [4] (setting [8]), the CD40 is 509.56* and the IFNg was 218.11*. The “number of down-regulated differential proteins” value in series [4] (interleukin factors (Table 17), compared with the model group) is listed as “seven”. Further, the change in vivo at 100 mg/kg in series [2] amounted to 40.7%. The “Bleeding time prolongation (%)” value in series [3] is given as 19.83%.

`CCOC(=O)CCCCCNC(=O)CCCCCNc1cc(=O)n(C)c(=O)n1C` [Compound 1-23]: the change in vivo at 100 mg/kg in series [2] was 38.1%. Besides, the “Bleeding time prolongation (%)” value in series [3] is on record as −19.20%.

As to `Cn1c(NCCCCCC(=O)NCCCCCC(=O)O)cc(=O)n(C)c1=O` [Compound 1-24], the change in vivo at 100 mg/kg in series [2] turned out to be 36.7%. Also, in series [3], the “Bleeding time prolongation (%)” value is 20.60%.

With `CC(C)OC(=O)CCNC(=O)CCNc1cc(=O)n(Cc2ccccc2)c(=O)n1Cc1ccccc1` [Compound 1-26], the change in vivo at 100 mg/kg in series [2] amounted to 40.4%. The “Bleeding time prolongation (%)” value in series [3] is given as −13.30%.

In the case of `CC(C)OC(=O)CCNC(=O)CCNc1cc(=O)n(C)c(=O)n1Cc1cccnc1` [Compound 1-27], the change in vivo at 100 mg/kg in series [2] was 39.5%. Moreover, the “Bleeding time prolongation (%)” value in series [3] is given as 23.50%.

Consider `Cn1c(=O)cc(NCCC(=O)NCCC(=O)Oc2ccccc2)n(Cc2ccccc2)c1=O` [Compound 1-30], for which the change in vivo at 100 mg/kg in series [2] came to 39.8%. In addition, in series [3], the “Bleeding time prolongation (%)” value is −9.70%.

As to `CC1CCC(C(C)C)C(OC(=O)CCNC(=O)CCNc2cc(=O)n(C)c(=O)n2Cc2cccnc2)C1` (stereo not drawn) [Compound 1-32], in series [2], the change in vivo at 100 mg/kg was found to be 48.4%. The “Bleeding time prolongation (%)” value in series [3] is given as −9.00%.

As for `CC(C)OC(=O)CCNC(=O)CCNc1cc(=O)n(Cc2cccnc2)c(=O)n1Cc1cccnc1` [Compound 1-34], the change in vivo at 100 mg/kg in series [2] came out at 53.5%. Moreover, in series [3], the “Bleeding time prolongation (%)” value is on record as −2.10%.

Take `CCOC(=O)CCNC(=O)[C@@H](Nc1cc(=O)n(C)c(=O)n1C)C(C)CC` (stereo partly drawn) [Compound 1-37]: the change in vivo at 100 mg/kg in series [2] worked out at 32.6%. The “Bleeding time prolongation (%)” value in series [3] was determined as 48.80%.

`CCOC(=O)CCCCCNC(=O)CCCCCNc1cc(=O)[nH]c(=O)[nH]1` [Compound 1-38]: in series [2], the change in vivo at 100 mg/kg came to 37.5%. In series [3], the “Bleeding time prolongation (%)” value turned out to be 28.40%.

With `CCOC(=O)CCNC(=O)CCNc1cc(=O)[nH]c(=N)[nH]1` [Compound 1-39], the change in vivo at 100 mg/kg in series [2] came out at 37.2%. Moreover, in series [3], the “Bleeding time prolongation (%)” value is 16.90%.

`CCOC(=O)[C@H](NC(=O)CCNc1cc(=O)n(C)c(=O)n1C)C(C)C` [Compound 1-42]: the change in vivo at 100 mg/kg in series [2] is 41.4%. Further, in series [3], the “Bleeding time prolongation (%)” value is given as −13.40%.

With `CC(C)OC(=O)CCNC(=O)CCN(C)c1cc(=O)n(C)c(=O)n1Cc1cc(F)ccc1C#N` [Compound 1-45], the change in vivo at 100 mg/kg in series [2] was determined as 43.1%. For the same compound, in series [3], the “Bleeding time prolongation (%)” value was 18.60%.

For the compound `CCOC(=O)CCCCNC(=O)CCCCNC(=O)CCCCNc1cc(=O)n(C)c(=O)n1C` [Compound 1-48], the change in vivo at 100 mg/kg in series [2] amounted to 38.6%. In series [3], the “Bleeding time prolongation (%)” value is 26.40%.

Turning to `CCOC(=O)CCNC(=O)CCNc1cc(=O)n(C2CCCC2)c(=O)n1C1CCCC1` [Compound 1-54], the change in vivo at 100 mg/kg in series [2] came to 37.2%. Further, the “Bleeding time prolongation (%)” value in series [3] came out at 13.00%.

Take `CCOC(=O)CCNC(=O)CCNc1cc(=O)n(Cc2cccnc2)c(=O)n1Cc1cccnc1` [Compound 1-55]: the change in vivo at 100 mg/kg in series [2] turned out to be 38.6%. For the same compound, the “Bleeding time prolongation (%)” value in series [3] is −3.10%.

(Values after patent US20250066310A1, “MULTI-SUBSTITUTED URACIL DERIVATIVE AND PREPARATION METHOD THEREFOR AND APPLICATION THEREOF” (HANGZHOU ADAMERCK PHARMLABS INC., priority 2021, published 2025).)
